Patent US10703746B2, “Mutant IDH1 inhibitors useful for treating cancer” (THE UNITED STATES OF AMERICA, AS REPRESENTED BY THE …, priority 2014, dated 2020)

Columns and labels:
IDH1 R132H = IDH1 R132H (Homo sapiens, UniProt O75874, R132H); experiment: IDH1 R132H enzymatic assay (NADPH depletion coupled to diaphorase/resazurin); assay type: biochemical; conditions: IDH1 R132H enzymatic inhibition, IC50 class
IDH1 R132C = IDH1 R132C (Homo sapiens, UniProt O75874, R132C); experiment: IDH1 R132C enzymatic assay (NADPH depletion coupled to diaphorase/resazurin); assay type: biochemical; conditions: IDH1 R132C enzymatic inhibition, IC50 class
Chain of IDH1 R132C (O75874 whole entry R132C): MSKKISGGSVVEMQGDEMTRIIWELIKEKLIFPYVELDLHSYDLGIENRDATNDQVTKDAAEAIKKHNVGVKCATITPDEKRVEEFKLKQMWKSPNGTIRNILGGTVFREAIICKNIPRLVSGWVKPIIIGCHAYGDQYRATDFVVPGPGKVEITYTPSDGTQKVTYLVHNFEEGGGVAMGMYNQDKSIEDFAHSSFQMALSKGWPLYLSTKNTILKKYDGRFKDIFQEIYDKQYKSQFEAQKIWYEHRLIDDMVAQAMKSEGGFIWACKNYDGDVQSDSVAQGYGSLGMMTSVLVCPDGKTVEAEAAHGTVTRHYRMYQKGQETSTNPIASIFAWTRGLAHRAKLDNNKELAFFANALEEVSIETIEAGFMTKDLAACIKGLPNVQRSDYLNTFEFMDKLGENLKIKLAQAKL
How it was run: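 NADPH depletion, read via diaphorase/resazurin coupling, after adding substrate at 0.6 mM α-KG and 0.012 mM NADPH. Beforehand, 0.00032 mg/mL enzyme sat with compound 30 min at room temperature in pH 6.5 potassium phosphate buffer with MgCl2, glycerol and BSA.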

Chain of IDH1 R132H (O75874 whole entry R132H): as the sequence (O75874 whole entry R132C) above, with C132H counted along it

Row | SMILES | IC50 (IDH1 R132H) | IC50 (IDH1 R132C)
1 | CCc1cccc(CC)c1-n1c(C)c(C(=O)NCC(C)(C)C)cc(-c2nc(-c3ccc(Cl)cc3)cs2)c1=O [Compound 146] | > 20000 nM | 1000 to 5000 nM
2 | CCc1cccc(CC)c1-n1c(CC(C)C)c(C(=O)N2CCNCC2C(=O)OC)cc(-c2nc(-c3ccc(Cl)cc3)cs2)c1=O (centres unmarked) [Compound 147] | 1000 to 5000 nM | < 300 nM
3 | CCc1cccc(CC)c1-n1c(C)c(C(=O)N(C)CCN)cc(-c2nc(-c3ccc(Cl)cc3)cs2)c1=O [Compound 152] | 1000 to 5000 nM | 1000 to 5000 nM
4 | CCc1cccc(CC)c1-n1c(C)c(C(=O)NCCO)cc(-c2nc(-c3ccc(Cl)cc3)cs2)c1=O [Compound 153] | 300 to 1000 nM | 1000 to 5000 nM
5 | CCc1cccc(CC)c1-n1c(CC(C)C)c(C(=O)N2CCNC(=O)C2c2ccccc2)cc(-c2nc(-c3ccc(Cl)cc3)cs2)c1=O (centres unmarked) [Compound 155] | 300 to 1000 nM | < 300 nM
6 | CCc1cccc(CC)c1-n1c(CC(C)C)c(C(=O)N2CCNCC2)cc(-c2nc(-c3ccc(C(C)(C)C)cc3)c(C)s2)c1=O [Compound 160] | 1000 to 5000 nM | 1000 to 5000 nM
7 | CCc1cccc(CC)c1-n1c2c(cc(-c3nc(-c4ccc(C(=O)O)cc4)cs3)c1=O)C(=O)CC(C)(C)C2 [Compound 162] | > 20000 nM | 5000 to 20000 nM
8 | CSc1ccccc1-n1c2c(cc(-c3nc(-c4ccc(Cl)cc4)cs3)c1=O)C(=O)CC(C)(C)C2 [Compound 164] | 1000 to 5000 nM | 300 to 1000 nM
9 | COc1ccc(-n2cccc(-c3nc(-c4ccc(Cl)cc4)cs3)c2=O)c(OC)c1 [Compound 165] | > 20000 nM | > 20000 nM
10 | Cc1ccc(C(=O)O)cc1-n1c2c(cc(-c3nc(-c4ccc(Cl)cc4)cs3)c1=O)C(=O)CC(C)(C)C2 [Compound 166] | > 20000 nM | 5000 to 20000 nM
11 | CCc1cccc(CC)c1-n1c(C)c(C(=O)NCCOC)cc(-c2nc(-c3ccc(Cl)cc3)cs2)c1=O [Compound 169] | 1000 to 5000 nM | 300 to 1000 nM
12 | CCc1cccc(CC)c1-n1c(-c2ccccc2)c(C#N)cc(-c2nc(-c3ccc(Cl)cc3)cs2)c1=O [Compound 170] | 5000 to 20000 nM | 1000 to 5000 nM
13 | CCc1cccc(CC)c1-n1c(CC(C)C)c(C(=O)N2CCNC(C(=O)O)C2)cc(-c2nc(-c3ccc(Cl)cc3)cs2)c1=O (centres unmarked) [Compound 171] | < 300 nM | < 300 nM
14 | CCc1cccc(CC)c1-n1c2c(cc(-c3nc(-c4ccccc4C)cs3)c1=O)C(=O)CC(C)(C)C2 [Compound 173] | 1000 to 5000 nM | 1000 to 5000 nM
15 | CC1(C)CC(=O)c2cc(-c3nc(-c4ccc(Cl)cc4)cs3)c(=O)n(-c3cn[nH]c3)c2C1 [Compound 177] | 5000 to 20000 nM | 5000 to 20000 nM
16 | CCc1cccc(CC)c1-n1c2c(cc(-c3nc(-c4ccccc4OC)cs3)c1=O)C(=O)CC(C)(C)C2 [Compound 179] | 1000 to 5000 nM | 1000 to 5000 nM
17 | CCc1cccc(CC)c1-n1c(CC(C)C)c(C(=O)N2CCNCC2)cc(-c2nc(-c3ccc(F)cc3)c(C)s2)c1=O [Compound 181] | < 300 nM | < 300 nM
18 | CCc1cccc(CC)c1-n1c2c(cc(-c3nc(-c4ccc(OC)cc4)cs3)c1=O)C(=O)CC(C)(C)C2 [Compound 183] | 300 to 1000 nM | 300 to 1000 nM
19 | CCc1cccc(CC)c1-n1c(CC(C)C)c(C(=O)N2CCNCC2)cc(-c2ccn(-c3ccc(Cl)cc3)n2)c1=O [Compound 184] | < 300 nM | < 300 nM
20 | COc1ccc(OC)c(-n2c3c(cc(-c4ccc(-c5ccccc5)cc4)c2=O)C(=O)CC(C)(C)C3)c1 [Compound 185] | > 20000 nM | > 20000 nM
21 | CCc1cccc(CC)c1-n1c2c(cc(-c3nc(-c4ccc(C(F)(F)F)cc4)cs3)c1=O)C(=O)CC(C)(C)C2 [Compound 186] | 300 to 1000 nM | < 300 nM
22 | CCc1cccc(CC)c1-n1c(CC(C)C)c(C(=O)N2CCNCC2)cc(-c2nc(-c3ccc(C(=O)NC4CCCC4)cc3)c(C)s2)c1=O [Compound 188] | 5000 to 20000 nM | 5000 to 20000 nM
23 | CCc1cccc(CC)c1-n1c(CC(C)C)c(C(=O)N2CC(=O)N[C@H](C(=O)O)C2)cc(-c2nc(-c3ccc(Cl)cc3)cs2)c1=O [Compound 193] | 300 to 1000 nM | 300 to 1000 nM
24 | CCc1cccc(CC)c1-n1c2c(cc(-c3nc(-c4ccc(Cl)cc4)cs3)c1=O)C(=O)OC2 [Compound 194] | > 20000 nM | 5000 to 20000 nM
25 | CC1(C)CC(=O)c2cc(-c3nc(-c4ccc(Cl)cc4)cs3)c(=O)n(-c3ccccc3F)c2C1 [Compound 195] | 300 to 1000 nM | 300 to 1000 nM
26 | CCc1cccc(CC)c1-n1c(C)c(C(=O)N2CCNC(C(=O)O)C2)cc(-c2nc(-c3ccc(Cl)cc3)cs2)c1=O (centres unmarked) [Compound 198] | 300 to 1000 nM | 300 to 1000 nM
27 | CC1(C)CC(=O)c2cc(-c3nc(-c4ccc(Cl)cc4)cs3)c(=O)n(-c3ccccc3O)c2C1 [Compound 199] | 5000 to 20000 nM | 5000 to 20000 nM
28 | CCc1cccc(CC)c1-n1c2c(cc(-c3nc(-c4ccccn4)cs3)c1=O)C(=O)CC(C)(C)C2 [Compound 200] | 5000 to 20000 nM | 1000 to 5000 nM
29 | CCc1cccc(CC)c1-n1c(CC(C)C)c(C(=O)N2CCNC(CO)C2)cc(-c2nc(-c3ccc(Cl)cc3)cs2)c1=O (centres unmarked) [Compound 201] | < 300 nM | < 300 nM

The next lines start with the values.

Row | IC50 (IDH1 R132H) | IC50 (IDH1 R132C) | SMILES
30 | 300 to 1000 nM | 300 to 1000 nM | CCc1cccc(CC)c1-n1c2c(cc(-c3nc(-c4ccc(F)cc4)cs3)c1=O)C(=O)CC(C)(C)C2 [Compound 148]
31 | > 20000 nM | 1000 to 5000 nM | COc1ccc(OC)c(-n2c3c(cc(-c4nc5ccc(Cl)cc5s4)c2=O)C(=O)CC(C)(C)C3)c1 [Compound 149]
32 | 5000 to 20000 nM | 5000 to 20000 nM | CC1(C)CC(=O)c2cc(-c3nc(-c4ccc(Cl)cc4)cs3)c(=O)n(-c3ccccc3)c2C1 [Compound 150]
33 | 1000 to 5000 nM | 300 to 1000 nM | CCc1cccc(CC)c1-n1c(C)c(C(=O)NC[C@@H](C)O)cc(-c2nc(-c3ccc(Cl)cc3)cs2)c1=O [Compound 151]
34 | 5000 to 20000 nM | 5000 to 20000 nM | COc1ccc(OC)c(-n2c3c(cc(-n4cnc(-c5ccccc5)c4)c2=O)C(=O)CC(C)(C)C3)c1 [Compound 154]
35 | 1000 to 5000 nM | 1000 to 5000 nM | CCc1cccc(CC)c1-n1c(C)c(C(=O)N2CCCCC2)cc(-c2nc(-c3ccc(Cl)cc3)cs2)c1=O [Compound 156]
36 | 1000 to 5000 nM | 1000 to 5000 nM | COc1ccc(OC)c(-n2c3c(cc(-c4ccn(-c5ccccc5)n4)c2=O)C(=O)CC(C)(C)C3)c1 [Compound 158]
37 | 1000 to 5000 nM | 1000 to 5000 nM | CCc1cccc(CC)c1-n1c(CC(C)C)c(C(=O)NC2CCCCC2O)cc(-c2nc(-c3ccc(Cl)cc3)cs2)c1=O (centres unmarked) [Compound 159]
38 | 5000 to 20000 nM | 1000 to 5000 nM | CCc1cccc(CC)c1-n1c2c(cc(-c3nc(-c4cnc(C)nc4)c(C)s3)c1=O)C(=O)CC(C)(C)C2 [Compound 161]
39 | > 20000 nM | > 20000 nM | CCc1cccc(CC)c1-n1c2c(cc(-c3nc(-c4cccc(OC)c4)cs3)c1=O)C(=O)CC(C)(C)C2 [Compound 163]
40 | < 300 nM | < 300 nM | CC1(C)CC(=O)c2cc(-c3nc(-c4ccc(Cl)cc4)cs3)c(=O)n(-c3ccccc3Cl)c2C1 [Compound 167]
41 | 300 to 1000 nM | 300 to 1000 nM | CCc1cccc(CC)c1-n1c(C(C)C)c(C(=O)N2CCNC(=O)C2)cc(-c2nc(-c3ccc(Cl)cc3)cs2)c1=O [Compound 168]
42 | 300 to 1000 nM | < 300 nM | CCc1cccc(CC)c1-n1c(CC(C)C)c(C(=O)NC[C@@H](N)C(=O)O)cc(-c2nc(-c3ccc(Cl)cc3)cs2)c1=O [Compound 172]
43 | > 20000 nM | 5000 to 20000 nM | COc1c(C(=O)O)cccc1-n1c2c(cc(-c3nc(-c4ccc(Cl)cc4)cs3)c1=O)C(=O)CC(C)(C)C2 [Compound 174]
44 | < 300 nM | 300 to 1000 nM | COc1ccc(OC)c(-n2c3c(cc(-c4nc5cc(Cl)ccc5s4)c2=O)C(=O)CC(C)(C)C3)c1 [Compound 175]
45 | 1000 to 5000 nM | 1000 to 5000 nM | CCc1cccc(CC)c1-n1c(C)c(C(=O)N[C@H](C)CO)cc(-c2nc(-c3ccc(Cl)cc3)cs2)c1=O [Compound 176]
46 | 300 to 1000 nM | 300 to 1000 nM | CC(C)c1ccccc1-n1c2c(cc(-c3nc(-c4ccc(Cl)cc4)cs3)c1=O)C(=O)CC(C)(C)C2 [Compound 178]
47 | > 20000 nM | > 20000 nM | CCc1cccc(CC)c1-n1c(C)c(C(=O)Nc2ccccc2)cc(-c2nc(-c3ccc(Cl)cc3)cs2)c1=O [Compound 180]
48 | 1000 to 5000 nM | 1000 to 5000 nM | Cc1ccc([N+](=O)[O-])cc1-n1c2c(cc(-c3nc(-c4ccc(Cl)cc4)cs3)c1=O)C(=O)CC(C)(C)C2 [Compound 182]
49 | 300 to 1000 nM | 300 to 1000 nM | CCc1cccc(CC)c1-n1c(CC(C)C)c(C(=O)N[C@@H]2CCC[C@@H]2O)cc(-c2nc(-c3ccc(Cl)cc3)cs2)c1=O [Compound 187]
50 | 300 to 1000 nM | < 300 nM | CCc1cccc(CC)c1-n1c(CC(C)C)c(C(=O)N2CCN[C@H](C(=O)O)C2)cc(-c2nc(-c3ccc(Cl)cc3)cs2)c1=O [Compound 189]
51 | > 20000 nM | > 20000 nM | COc1ccc(OC)c(-n2c(=O)c(-c3nc(-c4ccc(Cl)cc4)cs3)cc3c(O)cncc32)c1 [Compound 190]
52 | 1000 to 5000 nM | 1000 to 5000 nM | COc1ccc(OC)c(-n2c3c(cc(-n4ccc(-c5ccccc5)n4)c2=O)C(=O)CC(C)(C)C3)c1 [Compound 191]
53 | > 20000 nM | 1000 to 5000 nM | CCc1cccc(CC)c1-n1c(C)c(C(=O)NCc2ccccc2)cc(-c2nc(-c3ccc(Cl)cc3)cs2)c1=O [Compound 192]
54 | 1000 to 5000 nM | < 300 nM | CCc1cccc(CC)c1-n1c(CC(C)C)c(C(=O)NC(CC)CO)cc(-c2nc(-c3ccc(Cl)cc3)cs2)c1=O (centres unmarked) [Compound 196]
55 | 1000 to 5000 nM | 5000 to 20000 nM | CCc1cccc(CC)c1-n1c2c(cc(-c3nc(C4=CCN(C(=O)OC(C)(C)C)CC4)c(C)s3)c1=O)C(=O)CC(C)(C)C2 [Compound 197]
